Experimental data as given in US20080095856A1, “Encapsulated Nanoparticles for Drug Delivery” (priority 2006, published 2008).
Peptide text beside a SMILES is read from it. * marks the point of attachment. X1 = O=C(O)[C@H]1CSC(c2nc3ccc(N*)cc3s2)=N1

How the values were obtained:
[1] = Biodistribution of SKLQ-aminoluciferin by BLI in L2G85 mice; assay type: in vivo
Description: PSA is a chymotrypsin-like enzyme which specifically cleaves the C-terminus of glutamine (Q) in the peptide sequence, SKLQ-aminoluciferin. Prodrugs have been used to take advantage of this specificity of PSA. […] Where the peptides or prodrugs are encapsulated with polymer, the current shortcomings in delivery of tumor-specific peptides is overcome. The peptides or drugs can be encapsulated with a protective polymer coating, and the payload released in the vascularized tumor regions. This approach prevents non-specific distribution of the drug and ensures stability of the peptide/drug, and utilizes the active proteases that are specific to a disease state to activate a prodrug at the region of interest.
The strategies developed for these studies are utilized in the study of biodistribution of luciferin nanoparticles. The nanoparticles are also tested using a xenograft model of prostate cancer. Appropriate cell lines have been developed for conducting experiments to study human prostate cancer models in animals. […] Both LNCaP and PC3M cells have successfully been implanted into SCID mice, and their growth kinetics have been successfully quantified using BLI. Luciferase present in the cells is used as the read out for delivery of luciferin and can also be used as for assessing tumor burden when we transition to testing chemotherapeutic agents. […]

[2] = DPPH radical scavenger assay of antioxidative activity before and after SAS processing; assay type: biochemical; conditions: maximum UV absorbance before and after addition of quercetin
Description: The antioxidative activity of quercetin has not been diminished by this supercritical fluid process for nanoparticle formation. A radical scavenger DPPH (2,2,-diphenyl-1-picrylhydrazyl) was used to measure the EC50 value of DPPH at maximum UV absorbance before and after addition of quercetin.
Quercetin. Quercetin has been encapsulated with PLA (MW 50,000 and 100,000) using the following process parameters: T=40 C, P=100 bar, CO2 flow rate 50 g/min, 5:100 quercetin:polymer ratio using methanol as the cosolvent. Results can be seen in FIGS. 4A-4C. […] A radical scavenger DPPH (2,2,-diphenyl-1-picrylhydrazyl) was used to measure the EC50 value of DPPH at maximum UV absorbance before and after addition of quercetin.

SMILES	distribution in the animal ([1]; L2G85 mice)	stability in the body ([1]; in vivo, acted upon by various enzymes)	EC50 value of DPPH, before vs after SAS processing [2]
CC(C)C[C@H](NC(=O)[C@H](CCCCN)NC(=O)[C@@H](N)CO)C(=O)N[C@@H](CCC(N)=O)C(=O)Nc1ccc2nc(C3=N[C@@H](C(=O)O)CS3)sc2c1 [SKLQ-aminoluciferin] (H-SKLQ-X1; N-terminus and C-terminus assumed)	distributed non-specifically throughout the animal	unstable in the body	
O=c1c(O)c(-c2ccc(O)c(O)c2)oc2cc(O)cc(O)c12 [quercetin]			the same before and after SAS processing
